These molecules were tested against T1, VLA-4 (Homo sapiens, UniProt P05556+P13612) (assay: Adhesion of Jurkat cells to immobilized VCAM-1 (domains 1-3)). Conditions: adhesion of CFSE-labeled Jurkat cells to recombinant human VCAM-1 (domains 1-3) coated plates; compounds as yielded by solid phase synthesis, purity about 40-90%.
T1 construct: host or cells: Jurkat clone E6-1
T1 sequence (P13612 34-1032): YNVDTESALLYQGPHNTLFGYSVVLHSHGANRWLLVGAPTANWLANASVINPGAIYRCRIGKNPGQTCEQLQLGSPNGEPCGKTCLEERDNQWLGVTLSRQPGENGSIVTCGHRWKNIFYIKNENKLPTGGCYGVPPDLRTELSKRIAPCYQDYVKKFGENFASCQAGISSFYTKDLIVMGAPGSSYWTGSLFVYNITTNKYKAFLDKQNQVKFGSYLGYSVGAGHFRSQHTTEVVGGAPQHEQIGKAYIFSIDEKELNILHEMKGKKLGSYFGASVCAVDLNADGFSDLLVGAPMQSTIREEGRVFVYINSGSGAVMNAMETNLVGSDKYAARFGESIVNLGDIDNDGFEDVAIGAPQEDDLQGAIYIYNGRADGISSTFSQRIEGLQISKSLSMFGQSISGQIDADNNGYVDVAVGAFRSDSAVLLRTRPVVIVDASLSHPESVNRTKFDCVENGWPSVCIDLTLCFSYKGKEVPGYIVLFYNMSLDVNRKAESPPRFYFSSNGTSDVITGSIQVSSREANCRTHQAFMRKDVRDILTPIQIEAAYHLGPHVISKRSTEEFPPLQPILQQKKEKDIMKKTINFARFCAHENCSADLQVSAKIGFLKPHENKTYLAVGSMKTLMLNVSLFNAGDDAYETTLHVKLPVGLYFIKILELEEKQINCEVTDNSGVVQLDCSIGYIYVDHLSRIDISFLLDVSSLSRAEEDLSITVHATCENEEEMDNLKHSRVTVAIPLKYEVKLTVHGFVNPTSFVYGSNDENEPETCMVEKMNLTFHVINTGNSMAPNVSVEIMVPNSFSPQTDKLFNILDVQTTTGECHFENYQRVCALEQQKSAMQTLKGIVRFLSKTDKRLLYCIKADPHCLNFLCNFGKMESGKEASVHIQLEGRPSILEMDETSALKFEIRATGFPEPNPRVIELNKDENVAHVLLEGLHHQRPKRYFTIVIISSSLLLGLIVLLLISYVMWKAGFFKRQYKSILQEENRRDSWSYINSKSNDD
T1 sequence (P05556 21-798): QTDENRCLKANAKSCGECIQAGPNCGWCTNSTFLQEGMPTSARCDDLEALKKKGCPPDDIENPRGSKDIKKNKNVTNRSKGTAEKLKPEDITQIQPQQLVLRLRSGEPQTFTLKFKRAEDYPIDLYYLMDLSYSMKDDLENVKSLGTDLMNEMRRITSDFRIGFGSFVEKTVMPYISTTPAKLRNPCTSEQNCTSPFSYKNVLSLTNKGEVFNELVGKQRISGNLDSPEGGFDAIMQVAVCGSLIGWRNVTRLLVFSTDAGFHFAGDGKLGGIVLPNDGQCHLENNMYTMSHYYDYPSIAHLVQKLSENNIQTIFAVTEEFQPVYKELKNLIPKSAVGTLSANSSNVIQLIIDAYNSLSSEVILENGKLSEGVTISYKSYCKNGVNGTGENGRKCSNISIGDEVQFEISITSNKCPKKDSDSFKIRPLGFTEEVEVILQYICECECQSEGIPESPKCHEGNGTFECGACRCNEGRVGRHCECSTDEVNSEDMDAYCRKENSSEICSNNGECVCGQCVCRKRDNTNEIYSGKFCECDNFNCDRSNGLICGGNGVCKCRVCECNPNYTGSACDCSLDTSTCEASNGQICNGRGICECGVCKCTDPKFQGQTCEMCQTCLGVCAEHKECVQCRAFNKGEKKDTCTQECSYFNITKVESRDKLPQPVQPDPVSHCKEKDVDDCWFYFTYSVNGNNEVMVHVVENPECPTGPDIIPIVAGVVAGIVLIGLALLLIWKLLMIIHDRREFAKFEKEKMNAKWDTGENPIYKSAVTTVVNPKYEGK
Type: cell-based
Design: scale not given here
Summary of the method: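 CFSE-labelled Jurkat E6-1 cells in Tris buffer pH 7.4 with 2 mM MnCl2 were added to wells coated with insect-cell-expressed human VCAM-1 domains 1-3 (0.5 μg/ml coating solution); labelled cells were incubated for 30 min at 37 °C with the VLA-4 inhibitor.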
For COc1ccc(-c2ccc(C[C@H](NC(=O)C3CCCN(c4ncnc(N5CCCCC5)c4F)C3)C(=O)O)cc2)cc1 (stereo partly shown) [Example 2.16], the IC50 was “C-D”. With COc1ccc(-c2ccc(C[C@H](NC(=O)C3CCCN(c4ncnc(N5CCOCC5)c4F)C3)C(=O)O)cc2)cc1 (stereo partly shown) [Example 2.17] the IC50 was “C-D”. COc1ccc(-c2ccc(C[C@H](NC(=O)C3CCCN(c4ncnc(N(C)Cc5ccccc5)c4F)C3)C(=O)O)cc2)cc1 (stereo partly shown) [Example 2.18] was tested, and the IC50 was “C-D”. With COc1ccc(-c2ccc(C[C@H](NC(=O)C3CCCN(c4ncnc(N5CCNCC5)c4F)C3)C(=O)O)cc2)cc1 (stereo partly shown) [Example 2.19] the IC50 was “C-D”. CCCNc1ncnc(N2CCCC(C(=O)N[C@@H](Cc3ccc(-c4ccc(OC)cc4)cc3)C(=O)O)C2)c1F (stereo partly shown) [Example 2.20] was tested, and the IC50 was “C-D”. In the case of COc1ccc(-c2ccc(C[C@H](NC(=O)C3CCCN(c4ncnc(NC5Cc6ccccc6C5)c4F)C3)C(=O)O)cc2)cc1 (stereo partly shown) [Example 2.21], the IC50 is reported as “C-D”. For COc1ccc(-c2ccc(C[C@H](NC(=O)C3CCCN(c4ncnc(NCCN5CCCC5)c4F)C3)C(=O)O)cc2)cc1 (stereo partly shown) [Example 2.22], the IC50 was “C-D”. With CCCCN(C)c1ncnc(N2CCCC(C(=O)N[C@@H](Cc3ccc(-c4ccc(OC)cc4)cc3)C(=O)O)C2)c1F (stereo partly shown) [Example 2.23] the IC50 was “C-D”. With Cc1ccccc1-c1ccc(C[C@H](NC(=O)C2CCCN(c3ncnc(NCc4ccccn4)c3F)C2)C(=O)O)cc1 (stereo partly shown) [Example 2.24] the IC50 was “C-D”. In the case of Cc1ccccc1-c1ccc(C[C@H](NC(=O)C2CCCN(c3ncnc(NC4CCCCC4)c3F)C2)C(=O)O)cc1 (stereo partly shown) [Example 2.25], the IC50 is reported as “C-D”. With Cc1ccccc1-c1ccc(C[C@H](NC(=O)C2CCCN(c3ncnc(N4CCCCC4)c3F)C2)C(=O)O)cc1 (stereo partly shown) [Example 2.26] the IC50 was “C-D”. Cc1ccccc1-c1ccc(C[C@H](NC(=O)C2CCCN(c3ncnc(N4CCOCC4)c3F)C2)C(=O)O)cc1 (stereo partly shown) [Example 2.27] was tested, and the IC50 was “C-D”. With Cc1ccccc1-c1ccc(C[C@H](NC(=O)C2CCCN(c3ncnc(N(C)Cc4ccccc4)c3F)C2)C(=O)O)cc1 (stereo partly shown) [Example 2.28] the IC50 was “C-D”. In the case of Cc1ccccc1-c1ccc(C[C@H](NC(=O)C2CCCN(c3ncnc(N4CCNCC4)c3F)C2)C(=O)O)cc1 (stereo partly shown) [Example 2.29], the IC50 is reported as “C-D”. For Cc1ccccc1-c1ccc(C[C@H](NC(=O)C2CCCN(c3ncnc(NC4Cc5ccccc5C4)c3F)C2)C(=O)O)cc1 (stereo partly shown) [Example 2.31], the IC50 was “C-D”. With Cc1ccccc1-c1ccc(C[C@H](NC(=O)C2CCCN(c3ncnc(NCCN4CCCC4)c3F)C2)C(=O)O)cc1 (stereo partly shown) [Example 2.32] the IC50 was “C-D”. CCCCN(C)c1ncnc(N2CCCC(C(=O)N[C@@H](Cc3ccc(-c4ccccc4C)cc3)C(=O)O)C2)c1F (stereo partly shown) [Example 2.33] was tested, and the IC50 was “C-D”. O=C(N[C@@H](Cc1ccc(-c2cc(Cl)ccc2Cl)cc1)C(=O)O)C1CCCN(c2ncnc(N3CCCCC3)c2F)C1 (stereo partly shown) [Example 2.35] was tested, and the IC50 was “C-D”. CN(Cc1ccccc1)c1ncnc(N2CCCC(C(=O)N[C@@H](Cc3ccc(-c4cc(Cl)ccc4Cl)cc3)C(=O)O)C2)c1F (stereo partly shown) [Example 2.36] was tested, and the IC50 was “C-D”. With CCCNc1ncnc(N2CCCC(C(=O)N[C@@H](Cc3ccc(-c4cc(Cl)ccc4Cl)cc3)C(=O)O)C2)c1F (stereo partly shown) [Example 2.37] the IC50 was “C-D”. O=C(N[C@@H](Cc1ccc(-c2cc(Cl)ccc2Cl)cc1)C(=O)O)C1CCCN(c2ncnc(NC3Cc4ccccc4C3)c2F)C1 (stereo partly shown) [Example 2.38] was tested, and the IC50 was “C-D”. In the case of CCCCN(C)c1ncnc(N2CCCC(C(=O)N[C@@H](Cc3ccc(-c4cc(Cl)ccc4Cl)cc3)C(=O)O)C2)c1F (stereo partly shown) [Example 2.40], the IC50 is reported as “A-B”. In the case of O=C(N[C@@H](Cc1ccc(-c2ccc(Cl)c(Cl)c2)cc1)C(=O)O)C1CCCN(c2ncnc(NCc3ccccn3)c2F)C1 (stereo partly shown) [Example 2.41], the IC50 is reported as “C-D”. O=C(N[C@@H](Cc1ccc(-c2ccc(Cl)c(Cl)c2)cc1)C(=O)O)C1CCCN(c2ncnc(NC3CCCCC3)c2F)C1 (stereo partly shown) [Example 2.42] was tested, and the IC50 was “C-D”. In the case of O=C(N[C@@H](Cc1ccc(-c2ccc(Cl)c(Cl)c2)cc1)C(=O)O)C1CCCN(c2ncnc(N3CCCCC3)c2F)C1 (stereo partly shown) [Example 2.43], the IC50 is reported as “C-D”. With O=C(N[C@@H](Cc1ccc(-c2ccc(Cl)c(Cl)c2)cc1)C(=O)O)C1CCCN(c2ncnc(N3CCOCC3)c2F)C1 (stereo partly shown) [Example 2.44] the IC50 was “C-D”. With CN(Cc1ccccc1)c1ncnc(N2CCCC(C(=O)N[C@@H](Cc3ccc(-c4ccc(Cl)c(Cl)c4)cc3)C(=O)O)C2)c1F (stereo partly shown) [Example 2.45] the IC50 was “C-D”. In the case of O=C(N[C@@H](Cc1ccc(-c2ccc(Cl)c(Cl)c2)cc1)C(=O)O)C1CCCN(c2ncnc(N3CCNCC3)c2F)C1 (stereo partly shown) [Example 2.46], the IC50 is reported as “C-D”. In the case of CCCNc1ncnc(N2CCCC(C(=O)N[C@@H](Cc3ccc(-c4ccc(Cl)c(Cl)c4)cc3)C(=O)O)C2)c1F (stereo partly shown) [Example 2.47], the IC50 is reported as “C-D”. For O=C(N[C@@H](Cc1ccc(-c2ccc(Cl)c(Cl)c2)cc1)C(=O)O)C1CCCN(c2ncnc(NC3Cc4ccccc4C3)c2F)C1 (stereo partly shown) [Example 2.48], the IC50 was “C-D”. O=C(N[C@@H](Cc1ccc(-c2ccc(Cl)c(Cl)c2)cc1)C(=O)O)C1CCCN(c2ncnc(NCCN3CCCC3)c2F)C1 (stereo partly shown) [Example 2.49] was tested, and the IC50 was “C-D”. For CCCCN(C)c1ncnc(N2CCCC(C(=O)N[C@@H](Cc3ccc(-c4ccc(Cl)c(Cl)c4)cc3)C(=O)O)C2)c1F (stereo partly shown) [Example 2.50], the IC50 was “C-D”. In the case of COc1ccccc1-c1ccc(C[C@H](NC(=O)C2CCCN(c3ncnc(N4CCCCC4)c3F)C2)C(=O)O)cc1 (stereo partly shown) [Example 2.52], the IC50 is reported as “C-D”. With COc1ccccc1-c1ccc(C[C@H](NC(=O)C2CCCN(c3ncnc(NC4Cc5ccccc5C4)c3F)C2)C(=O)O)cc1 (stereo partly shown) [Example 2.56] the IC50 was “B-C”.

Same assay, conditions: adhesion of CFSE-labeled Jurkat cells to recombinant human VCAM-1 (domains 1-3) coated plates; compounds as yielded by solid phase synthesis, purity about 40-90%; read-out: IC50
In the case of CCCNc1ncnc(N2CCCC(C(=O)N[C@@H](Cc3ccc(-c4ccccc4C)cc3)C(=O)O)C2)c1F (stereo partly shown) [Example 2.30], the IC50 is reported as 2 to 10 µM. Molecule O=C(N[C@@H](Cc1ccc(-c2cc(Cl)ccc2Cl)cc1)C(=O)O)C1CCCN(c2ncnc(NC3CCCCC3)c2F)C1 (stereo partly shown) [Example 2.34] has an IC50 of 2 to 10 µM. Molecule O=C(N[C@@H](Cc1ccc(-c2cc(Cl)ccc2Cl)cc1)C(=O)O)C1CCCN(c2ncnc(NCCN3CCCC3)c2F)C1 (stereo partly shown) [Example 2.39] has an IC50 of 0.5 to 2 µM. COc1ccccc1-c1ccc(C[C@H](NC(=O)C2CCCN(c3ncnc(NCc4ccccn4)c3F)C2)C(=O)O)cc1 (stereo partly shown) [Example 2.51] gave an IC50 of 0.5 to 2 µM. For COc1ccccc1-c1ccc(C[C@H](NC(=O)C2CCCN(c3ncnc(N4CCOCC4)c3F)C2)C(=O)O)cc1 (stereo partly shown) [Example 2.53], the IC50 was 2 to 10 µM. Work on COc1ccccc1-c1ccc(C[C@H](NC(=O)C2CCCN(c3ncnc(N4CCNCC4)c3F)C2)C(=O)O)cc1 (stereo partly shown) [Example 2.54] yielded an IC50 of at most 0.5 µM. With CCCNc1ncnc(N2CCCC(C(=O)N[C@@H](Cc3ccc(-c4ccccc4OC)cc3)C(=O)O)C2)c1F (stereo partly shown) [Example 2.55] the IC50 was at most 0.5 µM. In the case of CN1CCN(C(=O)Nc2ccc(C[C@H](NC(=O)C3CCCN(C(=O)Cc4cccs4)C3)C(=O)O)cc2)CC1 (stereo partly shown) [Example 4.2], the IC50 is reported as at most 0.5 µM. CN1CCN(C(=O)Nc2ccc(C[C@H](NC(=O)C3CCCN(C(=O)c4ccc(OC(F)(F)F)cc4)C3)C(=O)O)cc2)CC1 (stereo partly shown) [Example 4.3] gave an IC50 of 0.5 to 2 µM. O=C(N[C@@H](Cc1ccc(NC(=O)N2CCCCC2)cc1)C(=O)O)C1CCCN(C(=O)c2ccc(OC(F)(F)F)cc2)C1 (stereo partly shown) [Example 4.4] gave an IC50 of 2 to 10 µM. With CN1CCN(C(=O)Nc2ccc(C[C@H](NC(=O)C3CCCN(S(C)(=O)=O)C3)C(=O)O)cc2)CC1 (stereo partly shown) [Example 4.5] the IC50 was 0.5 to 2 µM. COc1ccc(S(=O)(=O)N2CCCC(C(=O)N[C@@H](Cc3ccc(NC(=O)N4CCN(C)CC4)cc3)C(=O)O)C2)cc1OC (stereo partly shown) [Example 4.6] gave an IC50 of at most 0.5 µM. O=C(N[C@@H](Cc1ccc(NC(=O)N2CCCCC2)cc1)C(=O)O)C1CCCN(S(=O)(=O)Cc2ccccc2)C1 (stereo partly shown) [Example 4.7] was tested, and the IC50 was 0.5 to 2 µM. O=C(N[C@@H](Cc1ccc(NC(=O)N2CCN(c3ccccc3)CC2)cc1)C(=O)O)C1CCCN(C(=O)c2ccc(OC(F)(F)F)cc2)C1 (stereo partly shown) [Example 4.8] showed an IC50 of 2 to 10 µM. In the case of O=C(N[C@@H](Cc1ccc(NC(=O)N2CCc3ccccc3C2)cc1)C(=O)O)C1CCCN(C(=O)Cc2cccs2)C1 (stereo partly shown) [Example 4.9], the IC50 is reported as at most 0.5 µM. Work on O=C(N[C@@H](Cc1ccc(NC(=O)N2CCN(C(c3ccccc3)c3ccccc3)CC2)cc1)C(=O)O)C1CCCN(C(=O)Cc2cccs2)C1 (stereo partly shown) [Example 4.10] yielded an IC50 of at most 0.5 µM. Molecule Cc1ccc(S(=O)(=O)N2CCCC(C(=O)N[C@@H](Cc3ccc(NC(=O)N4CCN(C)CC4)cc3)C(=O)O)C2)cc1 (stereo partly shown) [Example 4.11] has an IC50 of at most 0.5 µM. COc1ccccc1C(=O)N1CCCC(C(=O)N[C@@H](Cc2ccc(NC(=O)N3CCCCC3)cc2)C(=O)O)C1 (stereo partly shown) [Example 4.12] gave an IC50 of at most 0.5 µM. O=C(N[C@@H](Cc1ccc(NC(=O)N2CCOCC2)cc1)C(=O)O)C1CCCN(C(=O)c2ccc(OC(F)(F)F)cc2)C1 (stereo partly shown) [Example 4.13] gave an IC50 of 0.5 to 2 µM. In the case of COc1ccccc1C(=O)N1CCCC(C(=O)N[C@@H](Cc2ccc(NC(=O)N3CCN(c4ccccc4)CC3)cc2)C(=O)O)C1 (stereo partly shown) [Example 4.14], the IC50 is reported as at most 0.5 µM. COc1ccccc1C(=O)N1CCCC(C(=O)N[C@@H](Cc2ccc(NC(=O)NCC(c3ccccc3)c3ccccc3)cc2)C(=O)O)C1 (stereo partly shown) [Example 4.15] was tested, and the IC50 was 0.5 to 2 µM. In the case of CN1CCN(C(=O)Nc2ccc(C[C@H](NC(=O)C3CCCN(S(=O)(=O)c4ccc5ccccc5c4)C3)C(=O)O)cc2)CC1 (stereo partly shown) [Example 4.16], the IC50 is reported as at most 0.5 µM. O=C(N[C@@H](Cc1ccc(NC(=O)N2CCOCC2)cc1)C(=O)O)C1CCCN(C(=O)OCc2ccccc2)C1 (stereo partly shown) [Example 4.17] gave an IC50 of 0.5 to 2 µM. With O=C(N[C@@H](Cc1ccc(NC(=O)N2CCN(c3ccccc3)CC2)cc1)C(=O)O)C1CCCN(C(=O)Cc2cccs2)C1 (stereo partly shown) [Example 4.18] the IC50 was at most 0.5 µM. Molecule COc1ccc(OC(=O)N2CCCC(C(=O)N[C@@H](Cc3ccc(NC(=O)N4CCN(c5ccccc5)CC4)cc3)C(=O)O)C2)cc1 (stereo partly shown) [Example 4.19] has an IC50 of 2 to 10 µM. With O=C(N[C@H](Cc1ccc(NC(=O)N2CCc3ccccc3C2)cc1)C(=O)O)C1CCCN(C(=O)c2ccc(OC(F)(F)F)cc2)C1 (stereo partly shown) [Example 4.20] the IC50 was 2 to 10 µM. Work on O=C(N[C@@H](Cc1ccc(NC(=O)N2CCOCC2)cc1)C(=O)O)C1CCCN(C(=O)Cc2ccccc2)C1 (stereo partly shown) [Example 4.21] yielded an IC50 of 0.5 to 2 µM.

Source: patent publication US6794386B2, “β-amino acid compounds as integrin antagonists” (Bayer Aktiengesellschaft, priority 2000, dated 2004)
